Results as given in ChEMBL document CHEMBL5316301, “Dual Nicotinamide Phosphoribosyltransferase (NAMPT) and Indoleamine 2,3-Dioxygenase 1 (IDO1) Inhibitors for the Treatment of Drug-Resistant Nonsmall-Cell Lung Cancer” (J Med Chem, 2023).
The source made the active and inactive calls. No cut-off for these calls is given here.

Assays:
[1] = target: T1, Indoleamine 2,3-dioxygenase 1 (Homo sapiens, UniProt P14902); experiment: Inhibition of human recombinant IDO1 assessed as reduction in N-formylkynurenine formation using L-tryptophan as substrate preincubated for 30 mins followed by substrate addition and measured after 10 mins by SpectraMax microplate reader analysis
[2] = target: T1, Indoleamine 2,3-dioxygenase 1; experiment: Inhibition of human recombinant IDO1 in human HeLa cells assessed as reduction in N-formylkynurenine formation using L-tryptophan as substrate preincubated for 24 hrs followed by substrate addition and measured after 30 mins; format: cell-based
A549 [3] = experiment: Antimigratory activity against NAMPT inhibitor-resistant A549 cells assessed as reduction in cell migration at 40 uM incubated for 24 hrs in presence of FK866 by inverted microscopic analysis; format: functional, cell-based; details: Homo sapiens
A549 [4] = experiment: cells; details: Homo sapiens, A549, 48 h
A549 [5] = experiment: Downregulation of IDO1 expression in NAMPT inhibitor-resistant A549 cells measured for 24 hrs by Western blot analysis; format: functional, cell-based; details: Homo sapiens, dose 5-10 µM
A549 [6] = experiment: cells; details: Homo sapiens, A549, 48 h; remark: listed apart in the source
A549 [7] = experiment: Antiproliferative activity against NAMPT inhibitor-resistant A549 cells assessed as reduction in cell viability measured for 48 hrs in presence of epacadostat by CCK-8 assay; format: functional, cell-based; details: Homo sapiens, A549, 48 h
A549 [8] = experiment: Antitumor activity against NAMPT inhibitor-resistant A549 cells xenografted in athymic nude mouse assessed as tumor growth inhibition at 2 mg/kg, iv bid measured on day 21 by caliper method; format: functional, Homo sapiens; details: A549, 504 h, time 21 day, read-out: TGI
A549 [9] = experiment: Antiproliferative activity against NAMPT inhibitor-resistant A549 cells assessed as reduction in cell viability measured for 48 hrs by CCK-8 assay; details: Homo sapiens
[10] = target: Nicotinamide phosphoribosyltransferase (Homo sapiens, UniProt P43490); experiment: Inhibition of recombinant NAMPT (unknown origin) incubated for 60 mins by SpectraMax microplate reader analysis
Nicotinamide phosphoribosyltransferase, sequence (P43490 whole entry): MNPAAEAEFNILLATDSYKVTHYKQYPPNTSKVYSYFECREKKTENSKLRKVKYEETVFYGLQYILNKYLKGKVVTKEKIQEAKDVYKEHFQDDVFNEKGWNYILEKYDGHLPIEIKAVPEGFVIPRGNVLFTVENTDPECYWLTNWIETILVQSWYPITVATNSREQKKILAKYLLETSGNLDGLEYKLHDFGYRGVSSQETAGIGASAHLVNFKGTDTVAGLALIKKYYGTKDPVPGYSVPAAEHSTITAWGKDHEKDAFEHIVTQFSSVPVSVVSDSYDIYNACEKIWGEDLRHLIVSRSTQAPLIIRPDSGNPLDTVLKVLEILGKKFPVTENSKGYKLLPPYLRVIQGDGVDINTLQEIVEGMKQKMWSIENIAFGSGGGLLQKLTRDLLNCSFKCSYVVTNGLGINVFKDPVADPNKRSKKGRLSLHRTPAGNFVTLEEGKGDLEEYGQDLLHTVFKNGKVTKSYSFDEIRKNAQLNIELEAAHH

T1 sequence (P14902 whole entry): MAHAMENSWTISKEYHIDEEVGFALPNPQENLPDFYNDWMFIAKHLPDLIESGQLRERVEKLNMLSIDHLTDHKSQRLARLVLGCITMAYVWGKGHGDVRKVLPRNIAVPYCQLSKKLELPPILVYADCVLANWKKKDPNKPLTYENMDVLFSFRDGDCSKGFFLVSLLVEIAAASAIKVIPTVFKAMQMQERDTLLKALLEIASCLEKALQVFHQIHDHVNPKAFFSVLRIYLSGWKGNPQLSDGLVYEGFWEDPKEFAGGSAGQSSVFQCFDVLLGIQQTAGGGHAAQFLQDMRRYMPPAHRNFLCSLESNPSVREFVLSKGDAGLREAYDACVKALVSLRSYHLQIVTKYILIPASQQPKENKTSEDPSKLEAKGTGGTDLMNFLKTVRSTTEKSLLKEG

| SMILES | IC50 [1] [nM] | IC50 [2] [nM] | other results |
| --- | --- | --- | --- |
| O=C(NCCCCCNc1nonc1/C(=N/O)Nc1ccc(F)c(Br)c1)c1ccc2nccn2c1 | 858 | 670 |  |
| O=C(c1ccc2nccn2c1)N1CCC(CCNc2nonc2/C(=N/O)Nc2ccc(F)c(Br)c2)CC1 | > 1000 |  |  |
| O=C(CCNc1nonc1/C(=N/O)Nc1ccc(F)c(Br)c1)Nc1ccc(CNC(=O)c2ccc3nccn3c2)cc1 | 151 | 161 |  |
| O=C(NCCNc1nonc1/C(=N/O)Nc1ccc(F)c(Br)c1)c1ccc2nccn2c1 | > 1000 | > 1000 |  |
| NS(=O)(=O)NCCNc1nonc1/C(=N/O)Nc1ccc(F)c(Br)c1 [EPACADOSTAT] |  |  | Activity (A549 [3]): Active; IC50 (A549 [4]): 34.5 µM; Activity (A549 [5]): inactive; IC50 (A549 [6]): 61.1 µM |
| O=C(/C=C/c1cccnc1)NCCCCC1CCN(C(=O)c2ccccc2)CC1 [DAPORINAD] |  |  | IC50 (A549 [7]): 34.5 µM; IC50 (A549 [6]): 52.1 µM |
| CC(=O)O[C@H]1C(=O)[C@@]2(C)[C@H]([C@H](OC(=O)c3ccccc3)[C@]3(O)C[C@H](OC(=O)[C@H](O)[C@@H](NC(=O)c4ccccc4)c4ccccc4)C(C)=C1C3(C)C)[C@]1(OC(C)=O)CO[C@@H]1C[C@@H]2O [PACLITAXEL] |  |  | inhibition in vivo at 2 mg/kg (A549 [8]): 20.2%; Activity (A549 [9]): Active |
| O=C(NCc1ccc(C(=O)N2CCC(CNc3nonc3/C(=N/O)Nc3ccc(F)c(Br)c3)CC2)cc1)c1ccc2nccn2c1 | > 1000 |  |  |
| O=C(CCCNc1nonc1/C(=N/O)Nc1ccc(F)c(Br)c1)Nc1ccc(CNC(=O)c2ccc3nccn3c2)cc1 | 730 | 663 | IC50 [10]: > 10 µM |
